Measured values as given in PMC10725504, “The co-crystal structure of Cbl-b and a small-molecule inhibitor reveals the mechanism of Cbl-b inhibition” (Communications Biology, 2023).

Target: T1, Cbl-b (Homo sapiens, UniProt Q13191)
T1 construct: gene CBLB; TKBD-LHR-RING (38–427) and full-length (1–982)
Test: FP-based displacement assay (fluorescent probe)
Type: binding

T1 sequence (Q13191 38-427): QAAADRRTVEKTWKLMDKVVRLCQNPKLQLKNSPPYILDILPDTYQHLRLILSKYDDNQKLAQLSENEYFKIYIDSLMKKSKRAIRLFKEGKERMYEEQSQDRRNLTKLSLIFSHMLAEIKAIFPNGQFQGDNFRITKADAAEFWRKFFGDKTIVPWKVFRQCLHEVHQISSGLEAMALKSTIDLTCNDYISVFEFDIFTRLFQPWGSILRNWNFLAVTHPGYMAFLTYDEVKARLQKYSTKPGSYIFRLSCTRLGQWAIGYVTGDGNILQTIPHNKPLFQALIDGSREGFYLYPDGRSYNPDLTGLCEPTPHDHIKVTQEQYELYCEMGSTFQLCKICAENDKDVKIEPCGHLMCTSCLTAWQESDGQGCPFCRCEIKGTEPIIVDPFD

## CC1=CC(C)=[N+]2C1=Cc1ccc(CCC(=O)NCCOCCOCCOCCNCc3ccc(C(=O)Nc4cccc([C@H](C)Cc5nncn5C)c4)nc3C3CC3)n1[B-]2(F)F [C7102]
  FP-based displacement assay (fluorescent probe): C7683 displaced binding of C7102 to both TKBD-LHR-RING and full-length proteins in a concentration dependent manner
